From patent US20180072738A1, “SOLVATED FORMS OF A BRUTON'S TYROSINE KINASE INHIBITOR” (Pharmacyclics LLC, priority 2015, published 2018)
Like-named read-outs stand apart in the source and are kept apart here.

Tests used:
OCI-Ly10 = assay: Growth inhibition of OCI-Ly10 (ABC-DLBCL) cells; format: cell-based; conditions: Homo sapiens
OCILy10 = assay: Induction of apoptosis in OCI-Ly10 (caspase activation, Annexin-V flow cytometry, sub-G0 fraction); format: cell-based; conditions: increase in sub-G0 fraction
[1] = Storage stability of the crystalline form at 40° C./75% RH (XRPD); format: physicochemical; conditions: for crystalline form after storage: storage at 40° C. and 75% RH, duration not stated
Experimental: X-Ray powder diffraction patterns were collected on a Bruker AXS C2 GADDS or Bruker AXS D8 diffractometer.
X-Ray Powder Diffraction patterns were collected on a Bruker AXS C2 GADDS diffractometer using Cu Ka radiation (40 kV, 40 mA), automated XYZ stage, laser video microscope for auto-sample positioning and a Hi Star 2-dimensional area detector. X-ray optics consists of a single Gobel multilayer mirror coupled with a pinhole collimator of 0.3 mm. A weekly performance check is carried out using a certified standard NIST 1976 Corundum (flat plate). The beam divergence, i.e. the effective size of the X-ray beam on the sample, was approximately 4 mm. A θ-θ continuous scan mode was employed with a sample-detector distance of 20 cm which gives an effective 2θ range of 3.2°-29.7°. Typically the sample would be exposed to the X-ray beam for 120 seconds. The software used for data collection was GADDS for XP/2000 4.1.43 and the data were analysed and presented using Diffrac Plus EVA v15.0.0.0.
X-Ray Powder Diffraction patterns were collected on a Bruker D8 diffractometer using Cu Ka radiation (40 kV, 40 mA), θ-2θ goniometer, and divergence of V4 and receiving slits, a Ge monochromator and a Lynxeye detector. The instrument is performance checked using a certified Corundum standard (NIST 1976). The software used for data collection was Diffrac Plus XRD Commander v2.6.1 and the data were analysed and presented using Diffrac Plus EVA v15.0.0.0. Samples were run under ambient conditions as flat plate specimens using powder as received. The sample was gently packed into a cavity cut into polished, zero-background (510) silicon wafer. The sample was rotated in its own plane during analysis. The details of the data collection are: • Angular range: 2 to 42° 2θ • Step size: 0.05° 2θ • Collection time: 0.5 s/step

C=CC(=O)N1CCC[C@@H](n2nc(-c3ccc(Oc4ccccc4)cc3)c3c(N)ncnc32)C1 [Compound 1, 1-((R)-3-(4-amino-3-(4-phenoxyphenyl)-1H-pyrazolo[3,4-d]pyrimidin-1-yl)piperidin-1-yl)prop-2-en-1-one]
EC50 (OCI-Ly10; OCI-Ly10, 1 hour pulse, read-out: EC50 1 hour pulse (growth of OCI-Ly10)): 50 nM
EC50 (OCI-Ly10; OCI-Ly10, continuous exposure, read-out: EC50 continuous exposure (growth of OCI-Ly10)): 10 nM
induction of apoptosis (OCILy10): observed

C=CC(=O)N1CCC[C@@H](n2nc(-c3ccc(Oc4ccccc4)cc3)c3c(N)ncnc32)C1 [listing 1 of 3 here]
Crystallinity after storage ([1]; one week storage at 40° C./75% RH, XRPD): unaffected

C=CC(=O)N1CCC[C@@H](n2nc(-c3ccc(Oc4ccccc4)cc3)c3c(N)ncnc32)C1 [listing 2 of 3 here]
crystalline form after storage ([1]; listed as benzyl acetate solvate of Compound 1): does not change

C=CC(=O)N1CCC[C@@H](n2nc(-c3ccc(Oc4ccccc4)cc3)c3c(N)ncnc32)C1 [listing 3 of 3 here]
crystalline form after storage ([1]; listed as 1,1,2-trichloroethane solvate of Compound 1): changes to a Form A
